Assay results as given in patent US9611314B2, “Functional peptide analogs of PEDF” (The Penn State Research Foundation, priority 2013, dated 2017).
Each block holds one molecule with its values, some of them ahead of it. Where no end group is shown, it is not given here.

How the values were obtained:
[1] = Peptide bioavailability in mouse vitreous after 5 μg eye drop (MALDI TOF); assay type: in vivo, C57BL/6 mice; settings: mouse, in vivo
Method: Before the longitudinal efficacy studies were carried out in vivo, the bioavailability of the five analogs was examined in comparison to the parent compound P78 and its active 29-mer derivative, SpxA1.
Bioavailability of each peptide was determined in vitreous samples obtained at various time points after eye drops were given. Vitreous samples were harvested from enucleated eyes and immediately analyzed by mass spectrometry. Spectral intensities were compared to spectra of known concentrations of each analog to calculate amounts of peptides reaching the vitreous. The eye drops administered to normal mouse eyes contained 5 μg of the test compound. Bioavailability was studied at three time points: 1, 4, 6 hr using four animals/time point (n=8 eyes). The vitreous was rapidly dissected from each group after the drops were given and immediately analyzed by MALDI TOF.

[2] = Peptide bioavailability in primate eyes, vitreous humor by mass spectrometry; assay type: in vivo, primate (Vervets); settings: 100 μg topical
Description: From the studies using the DR mouse model, two active, structurally diverse peptides 81-5 and 81-13 were selected to test their availability in the primate eye when given topically. There are substantial differences between the eyes of rodents, primates, and humans. The most obvious is size of the aqueous and vitreous fluid compartments. Fluid flow forward from the ciliary body in primates/humans is countercurrent to drug movement to the back of the eye and may influence drug concentrations in the vitreous. In this study, it was examined whether the selected compounds had access to the retina when given topically to primate eyes as they do in rodents. Peptide doses used were scaled up by 8-20 fold as an estimate to account for differences in eye volume between rodents and primates.
Adult males and females were equally distributed into 3 treatment groups (Table 3) and randomized by weight criteria. Animals were fasted overnight then sedated with ketamine (8 mg/kg, I.M) and xylazine (1.6 mg/kg, I.M) prior to all procedures. Two monkeys received a topical dose of 40 μg (40 μl) of 81-5 OU (both eyes) and underwent vitreocentesis at ˜1 hr (Group 1) after dosing. […]
Samples were analyzed by mass spectrometry and concentrations calculated using a standard curve that plotted intensity vs known concentration. […]

transcription factors = test: Procarta multiplex transcription factor DNA binding activity; assay type: cell-based; settings: 50 nM peptides, 48 hr, human RPE cells
Method: Activation of transcription factors by P78, spx or 81-5 was measured in human RPE cells. The Affymetrix Procarta Multiplex Transcription factor panel (Affymetrix, Inc. Santa Clara, Calif.) was used to obtain quantitative measurement of DNA binding activity of 44 transcription factors. Cells were seeded at 1×10^5 cells/ml in 6 well plates. Cells were treated with 50 nM peptides in 2% FBS medium for 48 hr, peptides were supplied twice after 24 hr. Cells were harvested using Buffer A working reagent (250 μl well)(1 ml Buffer A: 10 μl DTT, 10 μl protease inhibitor, 10 μl phosphatase inhibitor I, 10 μl phosphatase inhibitor II) and centrifuged at 14,000×g for 3 min at 4° C. Supernatant containing cytoplasmic proteins was collected and protein concentration estimated using the BioRad DC protein assay. To the nuclear pellets, 30 μl/well buffer B (1 ml Buffer B: 10 μl DTT, 10 μl protease inhibitor, 10 μl phosphatase inhibitor I) was added and the samples incubated for 2 hours at 200 rpm. Supernatant containing nuclear proteins was collected by centrifugation at 14,000×g for 5 min at 4° C. and protein concentration measured using Bio-Rad DC protein assay. […] The beads were washed again, resuspended with reading buffer, and incubated for 5 min at room temperature. DNA binding activity of the transcription factors was measured using the Bio-Plex 200 system (bio-Rad) and the xMAP technology.

Molecule: SALSLGAAERTESIIHR [Peptide 81-13, SALSLGAAERTESIIHR]
- bioavailability profile in rodents [1]: comparable bioavailability profiles with 81-5
- peptide concentration in the vitreous, 1 versus 2 hr [2]: not significantly different between the 1 and 2 hr treatment

- regulation of transcription factors (transcription factors): regulates transcription factors
B1: Pigment epithelium derived factor (protein)
chain: QNVPSSSEGSPVPDSTGEPVEEEDPFFKVPVNKLAAAVSNFGYDLYRLRSSASPTGNVLLSPLSVATALSALSLGAEHRTESVIHRALYYDLITNPDIHSTYKELLASVTAPEKNLKSASRIVFERKLRVKSSFVAPLEKSYGTRPRILTGNPRVDLQEINNWVQAQMKGKIARSTREMPSALSILLLGVAYFKGQWVTKFDSRKTTLQDFHLDEDRTVRVPMMSDPKAILRYGLDSDLNCKIAQLPLTGSMSIIFFLPLTVTQNLTMIEESLTSEFIHDIDRELKTIQAVLTVPKLKLSFEGELTKSLQDMKLQSLFESPDFSKITGKPVKLTQVEHRAAFEWNEEGAGSSPSPGLQPVRLTFPLDYHLNQPFLFVLRDTDTGALLFIGRILDPSST
